The target of assay [1] is T1, β5 subunit of the human immunoproteasome (IPS) (Homo sapiens, UniProt P28062).
T1 construct: purchased Boston Biochem E-370
As to the kind of experiment: β5 inhibition assay, human immunoproteasome (Suc-LLVY-AMC). The format is biochemical. As to conditions: IC50 class, Suc-LLVY-AMC substrate. The gist of the method: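 β5 activity is read as liberated AMC fluorescence (355/460 nm) after 4 h dark reaction at RT with 22.6 μM Suc-LLVY-AMC, stopped by 1 μM bortezomib. Beforehand, 1 nM human IPS and compound sat 10 min at RT in HEPES pH 7.5 buffer containing NaCl, 0.02% SDS and DTT.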

The subject of another assay is HT-29 cells. As to the kind of experiment: CellTiter-Glo luminescent cell viability assay with HT-29 cells (72h incubation). It counts as cell-based, human. As to conditions: Homo sapiens, HT-29, HT29 cells, read-out: CTG HT29. The method in brief: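 Viability read as CellTiter-Glo luminescence after 72 h compound exposure, with 10 μM staurosporine and DMSO as control wells. Seeding 400 cells per well, compound added 24 h post-plating; IC50 from curve fitting.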
For orientation: In ATP-based viability assays light output follows the ATP content of the culture.

The next assay has as its system hPMBC. The experiment in a line: Chymotrypsin-like ProteasomeGlo assay in hPBMC. The settings on record: Homo sapiens; read-out: Pglo hPBMC. The format is cell-based. The gist of the method: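 IC50 derived from luminescent chymotrypsin-like proteasome activity (Suc-LLVY-Glo substrate plus luciferin detection reagent). Measured after 105 min compound exposure at 37 °C, 5% CO2. Cells were human B cells purified from buffy-coat PBMC.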

Turning to `Cc1ccc2cc1CNC(=O)[C@H](CCc1ccccc1)NC(=O)[C@@H](NC(=O)OCC1(C)COC1)CC(=O)N1CCCC(CCO2)C1` (stereo partly drawn) [Compound 293, (3-methyloxetan-3-yl)methyl ((9S,12S)-5^4-methyl-8,11,14-trioxo-9-phenethyl-4-oxa-7,10-diaza-1(3,1)-piperidina-5(1,3)-benzenacyclotetradecaphane-12-yl)carbamate], the IC50 (in assay [1]; in the assay on HT-29 cells; in the assay on hPMBC) was < 100 nM in each case.
Consider `CC(=O)N[C@H]1CC(=O)N2CCCC(CCOc3ccc(C)c(c3)CNC(=O)C(c3cnn(Cc4ccccc4)c3)NC1=O)C2` (stereo partly drawn) [Compound 565, N-((12S)-9-(1-benzyl-1H-pyrazol-4-yl)-5^4-methyl-8,11,14-trioxo-4-oxa-7,10-diaza-1(3,1)-piperidina-5(1,3)-benzenacyclotetradecaphane-12-yl)acetamide], for which the IC50 in assay [1] is < 100 nM; in the assay with HT-29 cells, < 100 nM; with hPMBC, 100 to 500 nM.
On to `Cc1ccc2cc1CNC(=O)[C@H](CCc1ccccc1)NC(=O)[C@@H](NC(=O)OCc1ccccc1)CC(=O)N1CCC[C@H](CCO2)C1` [Compound 292, benzyl ((13R,9S,12S)-5^4-methyl-8,11,14-trioxo-9-phenethyl-4-oxa-7,10-diaza-1(3,1)-piperidina-5(1,3)-benzenacyclotetradecaphane-12-yl)carbamate], for which the IC50 (in assay [1]; in the assay with HT-29 cells; with hPMBC) was < 100 nM each time.
As to `CCC(C(=O)N[C@H]1CC(=O)N2CCCC(CCOc3ccc(C)c(c3)CNC(=O)[C@H](CCc3ccccc3)NC1=O)C2)c1ccc(OC)c(OC)c1` (stereo partly drawn) [Compound 64, 2-(3,4-dimethoxyphenyl)-N-((9S,12S)-5^4-methyl-8,11,14-trioxo-9-phenethyl-4-oxa-7,10-diaza-1(3,1)-piperidina-5(1,3)-benzenacyclotetradecaphane-12-yl)butanamide], the IC50 (in assay [1]; in the assay with HT-29 cells; with hPMBC) was < 100 nM in each case.
On to `Cc1ccc2cc1CNC(=O)[C@H](CCc1ccccc1)NC(=O)[C@H](NC(=O)OCc1ccccc1)CC(=O)N1CCC[C@H](CCO2)C1` [Compound 291, benzyl ((13R,9S,12R)-5^4-methyl-8,11,14-trioxo-9-phenethyl-4-oxa-7,10-diaza-1(3,1)-piperidina-5(1,3)-benzenacyclotetradecaphane-12-yl)carbamate], for which the IC50 is < 100 nM in assay [1], < 100 nM in the assay with HT-29 cells and 1000 to 5000 nM with hPMBC.

The values are drawn from patent US20240415819A1, “MACROCYCLIC COMPOUNDS AS PROTEASOME SUBUNIT BETA TYPE-5 INHIBITORS” (Lead Discovery Center GmbH, priority 2021, published 2024).
